Experiment: Storage stability of dispersions of solid powderous agents in vehicles
Format: physicochemical
Conditions: as little as
Source text: Depending on the chemical and physical nature of the solid and its particle size, a minimum amount of the solid is required to form the stable suspension of the invention. For a given substance of given physical and chemical nature as well of particle size, this minimum amount can be easily determined by experimentation, which is within the reach of a person skilled in the art. With some substances, such as hydrocortisone, stable suspensions are obtained by incorporating as little as 3% by weight of the substance into the fluid carrier. A preferred average particle size (with 50% or more of the particles being below average) is one of less than 550 μm or 250 μm, in particular of less than 100 μm or 20 μm, most preferred of less than 5 μm or 2 μm. The stabilizing effect of the particulate solid of the invention can also be obtained by a mixture of particulate substances, such as a particulate pharmacologically or cosmetically active agent, for instance hydrocortisone, and a particulate pharmaceutically or cosmetically acceptable excipient, such as microcrystalline cellulose. The powderous agents used are practically insoluble in the vehicles.

amount of substance incorporated into the fluid carrier at which stable suspensions are obtained: 3 % by weight
SMILES: C[C@]12CCC(=O)C=C1CC[C@@H]1[C@@H]2[C@@H](O)C[C@@]2(C)[C@H]1CC[C@]2(O)C(=O)CO [hydrocortisone, Hydrocortisone]

Source: patent US20140044779A1, “Liquid Carrier for Oral Delivery of a Pharmacologically Active Agent” (LIPIDOR AB, priority 2011, published 2014)
